Experiments:
Assay in all cases: Post-emergence efficacy (B1), glasshouse spray test
Type in all cases: in vivo
[1] = tested on: Digitaria sanguinalis (DIGSA); settings: 500 g/Ha, evaluated after 13 days, 100=total damage to plant, 0=no damage to plant
Protocol: (§1) B1 Post-emergence efficacy Seeds of a variety of test species were sown in standard laom-based soil in pots:—Ipomoea hederacea (IPOHE), Euphorbia heterophylla (EPHHL), Chenopodium album (CHEAL), Amaranthus palmeri (AMAPA), Lolium perenne (LOLPE), Digitaria sanguinalis (DIGSA), Eleusine indica (ELEIN), Echinochloa crus-galli (ECHCG), Setaria faberi (SETFA). After cultivation for 14 days (post-emergence) under controlled conditions in a glasshouse (at 24/16° C., day/night; 14 hours light; 65% humidity), the plants were sprayed with an aqueous spray solution derived from the dissolution of the technical active ingredient Formula (I) in a small amount of acetone and a special solvent and emulsifier mixture referred to as IF50 (11.12% Emulsogen EL360 TM+44.44% N-methylpyrrolidone+44.44% Dowanol DPM glycol ether), to create a 50 g/l solution which was then diluted to required concentration using 0.25% or 1% Empicol ESC70 (Sodium lauryl ether sulphate)+1% ammonium sulphate as diluent. The delivery of the aqueous spray solution was via a laboratory track sprayer which delivered the aqueous spray composition at a rate of 200 litres per hectare, using a flat fan nozzle (Teejet 11002VS) and an application volume of 200 litre/ha (at 2 bar). The test plants were then grown in a glasshouse under controlled conditions (at 24/16° C., day/night; 14 hours light; 65% humidity) and watered twice daily. After 13 days the test was evaluated (100=total damage to plant; 0=no damage to plant).

[2] = tested on: Echinochloa crus-galli (ECHCG); settings: 500 g/Ha, evaluated after 13 days, 100=total damage to plant, 0=no damage to plant
Protocol: as §1

Eleusine indica (ELEIN) = settings: 500 g/Ha, evaluated after 13 days, 100=total damage to plant, 0=no damage to plant
Protocol: as §1

[3] = tested on: Euphorbia heterophylla (EPHHL); settings: 500 g/Ha, evaluated after 13 days, 100=total damage to plant, 0=no damage to plant
Protocol: as §1

Setaria faberi (SETFA) = settings: 500 g/Ha, evaluated after 13 days, 100=total damage to plant, 0=no damage to plant
Protocol: as §1

Lolium perenne (LOLPE) = settings: evaluated after 13 days, 100=total damage to plant, 0=no damage to plant
Protocol: as §1

[4] = tested on: Amaranthus palmeri (AMAPA); settings: 500 g/Ha, evaluated after 13 days, 100=total damage to plant, 0=no damage to plant
Protocol: as §1

[5] = tested on: Chenopodium album (CHEAL); settings: 500 g/Ha, evaluated after 13 days, 100=total damage to plant, 0=no damage to plant
Protocol: as §1

Structure (SMILES)	Control of weed species after post-emergence application: DIGSA [1]	Control of weed species after post-emergence application: ECHCG [2]	Control of weed species after post-emergence application: ELEIN (Eleusine indica (ELEIN))	Control of weed species after post-emergence application: EPHHL [3]	Control of weed species after post-emergence application: SETFA (Setaria faberi (SETFA))	Control of weed species after post-emergence application: LOLPE (Lolium perenne (LOLPE); 500 g/Ha)	Control of weed species after post-emergence application: AMAPA [4]	Control of weed species after post-emergence application: CHEAL [5]	pest or weed control at 500 g/ha (Lolium perenne (LOLPE); Lolium perenne, 312 h, read-out: Control of weed species after post-emergence application: LOLPE) [%]
O=C(O)CC[n+]1ccc(-c2ncccn2)cn1.[Br-] [Compound 1.021, 3-(4-pyrimidin-2-ylpyridazin-1-ium-1-yl)propanoic acid bromide]	100	100	100	100	100	–	–	–	–
O=C(O)CC[n+]1ccc(-c2ncccn2)cn1.[Cl-] [Compound 1.010, 3-(4-pyrimidin-2-ylpyridazin-1-ium-1-yl)propanoic acid chloride]	–	–	–	–	–	90	–	–	–
O=C(O)CC[n+]1ccc(-c2cccnn2)cn1.[Cl-] [Compound 1.027, 3-(4-pyridazin-3-ylpyridazin-1-ium-1-yl)propanoic acid chloride]	100	100	–	100	100	–	100	100	–
O=C(O)CC[n+]1ccc(-c2ncccn2)cn1 [Compound 1.023, 3-(4-pyrimidin-2-ylpyridazin-1-ium-1-yl)propanoic acid 2,2,2-trifluoroacetate]	–	–	–	–	–	–	–	–	90
Cl.N[C@@H](CCC[n+]1ccc(-c2ncccn2)cn1)C(=O)O.[Cl-] [Compound 1.030, [(1S)-1-carboxy-4-(4-pyrimidin-2-ylpyridazin-1-ium-1-yl)butyl]-ammonium dichloride]	100	100	–	–	100	–	–	–	–
